Experimental findings from ChEMBL document CHEMBL1201862, “PubChem BioAssay data set” (2004) are described below.

A word on the GI50: it is the concentration that inhibits growth by half.

Structures are written as SMILES.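 Briefly, cells in 96-well plates were exposed to five compound concentrations for 48 h, and endpoints were estimated by linear interpolation. The concentration for 50% growth inhibition is given as GI50.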 The source made the active and inactive calls. No stated cut-off is given here; in the data, active = GI50 up to about 1.1 µM and inactive = higher.

Test systems include NCI-H460; Hs-578T; SF-539; SK-OV-3; TK-10; HCC 2998; LOX IMVI; SK-MEL-5; MDA-MB-231; SF-268; NCI-H226; OVCAR-8; SNB-75; UACC-257; SNB-19; OVCAR-5; UACC-62; RPMI-8226; MDA-N; 786-0.
Holding throughout (experiment): DTP human tumour cell line panel, 48 h

`CCC1C(c2cc(OC)c(OC)c(OC)c2)c2cc3c(cc2OC1N1CCCC1)OCO3` (stereo not given): the GI50 with NCI-H460 was 2.84 µM (inactive); with Hs-578T, 1.36 µM (inactive); in the assay on SF-539, 1.39 µM (inactive); in the assay with SK-OV-3 it was 3.42 µM (inactive); in the assay with TK-10, 7.91 µM (inactive); in the assay with HCC 2998, 2.74 µM (inactive). Moreover, the GI50 in the assay on LOX IMVI is 2.57 µM (inactive); in the assay with SK-MEL-5, 0.678 µM (active); in the assay with MDA-MB-231, 3.83 µM (inactive); with SF-268 it was 4.58 µM (inactive); in the assay with NCI-H226, 3.08 µM (inactive); in the assay with OVCAR-8, 4.07 µM (inactive). Moreover, the GI50 in the assay on SNB-75 was 2.46 µM (inactive); in the assay on UACC-257, 4.59 µM (inactive); in the assay on SNB-19 it was 2.74 µM (inactive); with OVCAR-5 it was 8.49 µM (inactive); in the assay with UACC-62, 1.31 µM (inactive); in the assay with RPMI-8226, 3.05 µM (inactive). For the same molecule, the results for the 50% growth inhibitory concentration (GI50) with MDA-N and in the assay on 786-0 were 0.231 µM (active) and 3.07 µM (inactive), respectively.

Regarding `COC(=O)c1ccccc1CC1Cc2ccc3c(c2C1=O)CCCC3` (stereo not given), the GI50 in the assay with NCI-H460 is 68.5 µM (inactive); in the assay with Hs-578T, 60.7 µM (inactive); in the assay with SF-539 it was 62.1 µM (inactive); in the assay with SK-OV-3, > 95.9 µM (inactive); in the assay on TK-10 it was 51.4 µM (inactive); in the assay with HCC 2998, 44.3 µM (inactive). In addition, the GI50 was 28.8 µM (inactive) in the assay on LOX IMVI; 15.5 µM (inactive) with SK-MEL-5; 29.7 µM (inactive) with MDA-MB-231; 75.5 µM (inactive) with SF-268; 60.1 µM (inactive) in the assay with NCI-H226; 43.3 µM (inactive) with OVCAR-8. The GI50 is 40.4 µM (inactive) in the assay with SNB-75; 29.5 µM (inactive) in the assay with UACC-257; 87.7 µM (inactive) in the assay with SNB-19; > 100 µM (inactive) with OVCAR-5; 57.1 µM (inactive) in the assay on UACC-62; 19.2 µM (inactive) in the assay with RPMI-8226. For the same molecule, the GI50 was 35.8 µM (inactive) with MDA-N and 35.2 µM (inactive) with 786-0.

On to `CC(C)NC(=O)OCc1c(COC(=O)NC(C)C)c(-c2ccc[n+](COC(=O)CC(C)(C)C)c2)n2c1CCC2`, for which the GI50 in the assay on NCI-H460 was 51.5 µM (inactive); with Hs-578T, 87.7 µM (inactive); in the assay with SF-539, 84.9 µM (inactive); with SK-OV-3, > 100 µM (inactive); with TK-10 it was > 100 µM (inactive); in the assay on HCC 2998, > 100 µM (inactive). Besides, the GI50 in the assay on LOX IMVI was 78.3 µM (inactive); in the assay on SK-MEL-5 it was > 100 µM (inactive); in the assay with MDA-MB-231, > 100 µM (inactive); in the assay on SF-268, 54 µM (inactive); in the assay with NCI-H226, > 100 µM (inactive); in the assay on OVCAR-8, 81.3 µM (inactive). Besides, the GI50 is 67.6 µM (inactive) in the assay on SNB-75; > 100 µM (inactive) in the assay on UACC-257; > 100 µM (inactive) in the assay with SNB-19; > 100 µM (inactive) with OVCAR-5; 39.9 µM (inactive) with UACC-62; > 100 µM (inactive) in the assay on RPMI-8226. Further, the GI50 in the assay on MDA-N was > 100 µM (inactive); in the assay on 786-0, 38.4 µM (inactive).

In the case of `Cc1ccc(S(=O)(=O)N/N=C/C(Br)=C(/Br)C(=O)O)cc1`, the GI50 with NCI-H460 is 17.5 µM (inactive); with Hs-578T, 10.7 µM (inactive); in the assay on SF-539 it was 5.69 µM (inactive); in the assay on SK-OV-3 it was 16.4 µM (inactive); in the assay on TK-10 it was 7.69 µM (inactive); with HCC 2998, 4.29 µM (inactive). Moreover, the GI50 in the assay with LOX IMVI was 3.03 µM (inactive); in the assay on SK-MEL-5 it was 11.7 µM (inactive); in the assay on MDA-MB-231 it was 14.8 µM (inactive); in the assay with SF-268, 11.4 µM (inactive); with NCI-H226 it was 8.55 µM (inactive); in the assay on OVCAR-8, 2.6 µM (inactive). For the same molecule, the GI50 was 22.1 µM (inactive) in the assay on SNB-75; 12.1 µM (inactive) in the assay with UACC-257; 13.8 µM (inactive) in the assay on SNB-19; > 19.7 µM (inactive) in the assay with OVCAR-5; 8.17 µM (inactive) in the assay with UACC-62; 1.66 µM (inactive) in the assay with RPMI-8226. The GI50 with MDA-N is 4.69 µM (inactive); in the assay with 786-0 it was 3.42 µM (inactive).

For `CC(=O)O[C@H]1C(=O)[C@@]2(C)[C@H]([C@H](OC(=O)C3CCCCC3)[C@]3(O)C[C@H](OC(=O)[C@H](O)[C@@H](NC(=O)C4CCCCC4)C4CCCCC4)C(C)=C1C3(C)C)[C@]1(OC(C)=O)CO[C@@H]1C[C@@H]2O`, the GI50 was 0.00723 µM (active) in the assay with NCI-H460; 0.00962 µM (active) in the assay with Hs-578T; 0.0366 µM (active) with SF-539; 0.029 µM (active) in the assay on SK-OV-3; 0.0451 µM (active) in the assay with TK-10; 0.0442 µM (active) with HCC 2998. The 50% growth inhibitory concentration (GI50) is 0.0272 µM (active) in the assay with LOX IMVI; 0.0147 µM (active) in the assay on SK-MEL-5; 0.0336 µM (active) in the assay on MDA-MB-231; 0.408 µM (active) with SF-268; 0.0311 µM (active) in the assay on NCI-H226; 0.0228 µM (active) in the assay with OVCAR-8. Besides, the GI50 is 0.0508 µM (active) in the assay on SNB-75; 0.0389 µM (active) in the assay on UACC-257; 0.057 µM (active) with SNB-19; 0.0224 µM (active) in the assay with OVCAR-5; 0.0163 µM (active) in the assay with UACC-62; 0.0025 µM (active) with RPMI-8226. In addition, the concentration for 50% growth inhibition (GI50) with MDA-N was 0.0025 µM (active); with 786-0, 0.0171 µM (active).

Take `COc1ccc(-c2cc(-c3ccc(Nc4ccnc5cc(Cl)ccc45)cc3)[nH]c(=O)c2C#N)c2ccccc12`: the GI50 with NCI-H460 was 11.1 µM (inactive); in the assay with Hs-578T, 2.62 µM (inactive); in the assay on SF-539, 1.82 µM (inactive); in the assay on SK-OV-3 it was 20.9 µM (inactive); in the assay on TK-10, 8.63 µM (inactive); in the assay on HCC 2998, 5.51 µM (inactive). Moreover, the GI50 was 1.36 µM (inactive) with LOX IMVI; 13.1 µM (inactive) with SK-MEL-5; 3.29 µM (inactive) with MDA-MB-231; 12.7 µM (inactive) in the assay on SF-268; > 100 µM (inactive) with NCI-H226; 2.3 µM (inactive) in the assay on OVCAR-8. In addition, the GI50 with SNB-75 is 3.2 µM (inactive); with UACC-257, 24.9 µM (inactive); in the assay on SNB-19, 3.39 µM (inactive); with OVCAR-5, 41.3 µM (inactive); with UACC-62 it was 19.5 µM (inactive); in the assay with RPMI-8226, 2.6 µM (inactive). In addition, the figures for the GI50 with MDA-N and with 786-0 were 2.01 µM (inactive) and 3.4 µM (inactive), respectively.

As for `O=C1C(Br)=CC2(C=C1Br)CCNC1=C2C(=O)c2ncccc2C1=O`, the 50% growth inhibitory concentration (GI50) is 0.308 µM (active) in the assay on NCI-H460; 1.27 µM (inactive) with Hs-578T; 0.318 µM (active) in the assay on SF-539; 2.03 µM (inactive) in the assay on SK-OV-3; 2.32 µM (inactive) in the assay on TK-10; 1.98 µM (inactive) in the assay on HCC 2998. Also, the GI50 in the assay with LOX IMVI was 0.313 µM (active); in the assay with SK-MEL-5 it was 0.533 µM (active); with MDA-MB-231, 1.75 µM (inactive); with SF-268, 1.49 µM (inactive); with NCI-H226, 1.67 µM (inactive); with OVCAR-8 it was 1.44 µM (inactive). Moreover, the GI50 was 1.4 µM (inactive) in the assay with SNB-75; 0.631 µM (active) in the assay on UACC-257; 1.28 µM (inactive) in the assay with SNB-19; 1.67 µM (inactive) with OVCAR-5; 0.641 µM (active) in the assay on UACC-62; 0.621 µM (active) in the assay with RPMI-8226. Moreover, the GI50 with MDA-N is 0.183 µM (active); in the assay with 786-0 it was 1.47 µM (inactive).

Turning to `C#CCN1CCN(C(=S)N/N=C(\C)c2ccccn2)CC1`, the 50% growth inhibitory concentration (GI50) is 0.619 µM (active) with NCI-H460; 1.74 µM (inactive) with Hs-578T; 1.49 µM (inactive) with SF-539; 0.877 µM (active) in the assay with SK-OV-3; 3.28 µM (inactive) with TK-10; 0.568 µM (active) in the assay with HCC 2998. Moreover, the 50% growth inhibitory concentration (GI50) in the assay on LOX IMVI is 0.01 µM (active); with SK-MEL-5, 1.36 µM (inactive); in the assay with MDA-MB-231, 1.28 µM (inactive); in the assay on SF-268, 0.889 µM (active); in the assay on NCI-H226 it was 1.19 µM (inactive); with OVCAR-8 it was 0.01 µM (active). The GI50 with SNB-75 is 4.86 µM (inactive); with UACC-257, < 0.014 µM (active); with SNB-19, 2.99 µM (inactive); with OVCAR-5, 0.069 µM (active); in the assay on UACC-62, 0.0252 µM (active); in the assay on RPMI-8226, 0.01 µM (active). Besides, the GI50 in the assay with MDA-N is 1.46 µM (inactive); with 786-0 it was 0.0721 µM (active).

Regarding `Nc1ncnc2c1ncn2C1OC(CO)C(O)C1NS(=O)(=O)c1ccccc1` (stereo not given), the GI50 with NCI-H460, with Hs-578T, in the assay with SF-539, in the assay with SK-OV-3, with TK-10 and with HCC 2998 was > 100 µM (inactive) each time. Besides, the GI50 in the assay on LOX IMVI, in the assay on SK-MEL-5, in the assay with MDA-MB-231, in the assay with SF-268, in the assay with NCI-H226 and with OVCAR-8 was > 100 µM (inactive) in each case. The GI50 in the assay with SNB-75, in the assay with UACC-257, with SNB-19, with OVCAR-5, in the assay with UACC-62 and in the assay with RPMI-8226 was > 100 µM (inactive) throughout. Further, the GI50 in the assay on MDA-N and with 786-0 was > 100 µM (inactive) each time.

`N#Cc1ccc(C2ON=C(c3ccccc3)N2C23CC4CC(CC(C4)C2)C3)cc1` (stereo not given): the GI50 with NCI-H460, in the assay with Hs-578T, with SF-539, in the assay with SK-OV-3, in the assay on TK-10 and with HCC 2998 was > 10 µM (inactive) throughout. Besides, the GI50 in the assay on LOX IMVI was > 10 µM (inactive); in the assay with SK-MEL-5 it was > 10 µM (inactive); in the assay on MDA-MB-231 it was > 10 µM (inactive); with SF-268 it was > 10 µM (inactive); in the assay on NCI-H226, 6.76 µM (inactive); with OVCAR-8 it was > 10 µM (inactive). Moreover, the GI50 in the assay on SNB-75 is > 10 µM (inactive); with UACC-257, > 10 µM (inactive); in the assay on SNB-19, > 10 µM (inactive); with OVCAR-5, > 10 µM (inactive); in the assay with UACC-62 it was > 10 µM (inactive); in the assay with RPMI-8226, 6.19 µM (inactive). In addition, the GI50 in the assay on MDA-N and with 786-0 was > 10 µM (inactive) throughout.
